ChEMBL document CHEMBL5303573, “Mapping human microbiome drug metabolism by gut bacteria and their genes” (Nature, 2019)

Tests used:
Format in all cases: ADME
Set-up in all cases: dose 2 uM
Settings in all cases: 2 µM
Endoglucanase E (EGE) = target: T1, Endoglucanase E (EGE) (Bacteroides thetaiotaomicron, UniProt Q8AAL9); experiment: (§1) The drug is tested on Bacteroides thetaiotaomicron strain: VPI-5482 for biotransformation. The drug concentrations were measured before and after a 12-h incubation by liquid-chromatography-coupled mass spectrometry (LC–MS)
T1 sequence (Q8AAL9 whole entry): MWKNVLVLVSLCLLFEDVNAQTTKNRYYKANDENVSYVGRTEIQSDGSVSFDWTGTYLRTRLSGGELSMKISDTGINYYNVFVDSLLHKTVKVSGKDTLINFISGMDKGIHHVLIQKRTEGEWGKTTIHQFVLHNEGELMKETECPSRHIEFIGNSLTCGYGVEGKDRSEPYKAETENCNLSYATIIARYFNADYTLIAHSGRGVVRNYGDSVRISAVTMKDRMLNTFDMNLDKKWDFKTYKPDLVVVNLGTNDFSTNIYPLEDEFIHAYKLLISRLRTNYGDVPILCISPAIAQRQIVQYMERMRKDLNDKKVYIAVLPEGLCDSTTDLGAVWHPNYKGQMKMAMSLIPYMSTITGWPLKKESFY

Lipase = target: T2, Lipase (Bacteroides thetaiotaomicron, UniProt Q8A3J3); experiment: as §1
T2 sequence (Q8A3J3 whole entry): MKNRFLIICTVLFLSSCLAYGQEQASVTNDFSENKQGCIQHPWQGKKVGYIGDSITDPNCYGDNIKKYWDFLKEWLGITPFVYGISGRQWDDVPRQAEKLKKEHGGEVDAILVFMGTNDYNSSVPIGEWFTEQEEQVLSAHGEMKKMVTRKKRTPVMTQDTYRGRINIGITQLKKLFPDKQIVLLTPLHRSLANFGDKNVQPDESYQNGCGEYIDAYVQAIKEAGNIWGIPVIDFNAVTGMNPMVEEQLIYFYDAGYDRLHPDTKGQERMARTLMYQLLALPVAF

Nitroreductase = target: T3, Nitroreductase (Bacteroides thetaiotaomicron, UniProt Q8A911); experiment: as §1
T3 sequence (Q8A911 whole entry): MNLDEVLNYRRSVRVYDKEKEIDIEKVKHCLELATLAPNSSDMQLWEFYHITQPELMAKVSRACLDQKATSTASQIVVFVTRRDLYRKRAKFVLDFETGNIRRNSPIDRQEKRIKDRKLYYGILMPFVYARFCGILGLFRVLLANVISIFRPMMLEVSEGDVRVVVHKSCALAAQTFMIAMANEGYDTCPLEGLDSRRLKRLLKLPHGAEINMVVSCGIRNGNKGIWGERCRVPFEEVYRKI

Regulatory protein = target: T4, Regulatory protein (Bacteroides thetaiotaomicron, UniProt Q8A576); experiment: as §1
T4 sequence (Q8A576 whole entry): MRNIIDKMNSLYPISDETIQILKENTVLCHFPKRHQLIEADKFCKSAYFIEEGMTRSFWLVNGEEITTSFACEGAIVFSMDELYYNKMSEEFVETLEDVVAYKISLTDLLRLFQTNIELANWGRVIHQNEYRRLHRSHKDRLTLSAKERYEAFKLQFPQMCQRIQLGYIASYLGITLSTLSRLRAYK

Xylanase = target: T5, Xylanase (Bacteroides thetaiotaomicron, UniProt Q8A8H5); experiment: as §1
T5 sequence (Q8A8H5 whole entry): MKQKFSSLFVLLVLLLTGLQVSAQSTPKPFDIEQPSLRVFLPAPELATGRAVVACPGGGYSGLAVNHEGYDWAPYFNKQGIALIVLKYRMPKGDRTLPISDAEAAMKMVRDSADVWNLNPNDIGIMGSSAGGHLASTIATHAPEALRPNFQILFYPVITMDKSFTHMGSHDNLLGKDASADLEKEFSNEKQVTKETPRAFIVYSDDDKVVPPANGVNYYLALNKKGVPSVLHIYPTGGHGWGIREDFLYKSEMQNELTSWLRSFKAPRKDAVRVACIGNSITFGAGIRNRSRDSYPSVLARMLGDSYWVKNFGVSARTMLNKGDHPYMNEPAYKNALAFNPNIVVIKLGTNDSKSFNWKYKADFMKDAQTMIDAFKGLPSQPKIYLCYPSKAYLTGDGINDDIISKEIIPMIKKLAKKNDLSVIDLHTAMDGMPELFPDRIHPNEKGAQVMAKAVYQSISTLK

[1] = target: T6, Acyltransferase 3 domain-containing protein (Phocaeicola dorei, UniProt B6W2J3); experiment: (§2) The drug is tested on Bacteroides dorei strain: DSM17855 for biotransformation. The drug concentrations were measured before and after a 12-h incubation by liquid-chromatography-coupled mass spectrometry (LC–MS)
T6 sequence (B6W2J3 whole entry): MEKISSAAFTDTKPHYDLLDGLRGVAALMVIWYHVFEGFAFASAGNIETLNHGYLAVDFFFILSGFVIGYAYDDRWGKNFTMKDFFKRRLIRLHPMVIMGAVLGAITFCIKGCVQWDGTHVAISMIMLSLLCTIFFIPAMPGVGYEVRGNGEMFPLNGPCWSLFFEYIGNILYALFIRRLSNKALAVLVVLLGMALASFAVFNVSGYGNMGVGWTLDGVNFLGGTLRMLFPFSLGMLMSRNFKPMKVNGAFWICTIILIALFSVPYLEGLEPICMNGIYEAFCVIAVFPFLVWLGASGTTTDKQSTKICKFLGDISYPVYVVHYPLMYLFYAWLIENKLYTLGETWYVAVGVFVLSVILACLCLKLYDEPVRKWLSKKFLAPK

[2] = target: T7, Nitroreductase domain-containing protein (Phocaeicola dorei, UniProt B6W3P3); experiment: as §2
T7 sequence (B6W3P3 whole entry): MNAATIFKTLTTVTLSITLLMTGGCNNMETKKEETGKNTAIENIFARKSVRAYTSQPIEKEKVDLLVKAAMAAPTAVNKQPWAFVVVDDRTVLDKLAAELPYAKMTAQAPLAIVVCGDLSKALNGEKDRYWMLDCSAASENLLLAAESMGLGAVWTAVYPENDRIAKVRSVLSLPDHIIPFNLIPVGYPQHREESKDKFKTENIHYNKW

[3] = target: T8, SGNH hydrolase-type esterase domain-containing protein (Phocaeicola dorei, UniProt B6VTE7); experiment: as §2
T8 sequence (B6VTE7 whole entry): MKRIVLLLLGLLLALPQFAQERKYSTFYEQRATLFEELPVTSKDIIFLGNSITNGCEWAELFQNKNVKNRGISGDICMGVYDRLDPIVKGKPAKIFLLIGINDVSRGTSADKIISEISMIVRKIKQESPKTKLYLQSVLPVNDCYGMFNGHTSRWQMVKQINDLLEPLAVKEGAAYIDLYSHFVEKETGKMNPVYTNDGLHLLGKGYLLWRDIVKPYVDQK

[4] = target: T9, Steroid 5-alpha reductase C-terminal domain-containing protein (Phocaeicola dorei, UniProt B6W0N3); experiment: as §2
T9 sequence (B6W0N3 whole entry): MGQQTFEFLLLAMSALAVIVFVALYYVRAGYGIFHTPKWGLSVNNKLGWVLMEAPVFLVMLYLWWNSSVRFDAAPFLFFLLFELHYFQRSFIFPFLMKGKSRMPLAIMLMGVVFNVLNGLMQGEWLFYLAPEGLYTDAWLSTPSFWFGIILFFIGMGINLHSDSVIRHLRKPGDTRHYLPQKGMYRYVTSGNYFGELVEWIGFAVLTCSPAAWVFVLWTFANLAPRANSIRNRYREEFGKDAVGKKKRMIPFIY

Row | SMILES | Bacterial Biotransformation (Endoglucanase E (EGE)) | Bacterial Biotransformation (Lipase) | Bacterial Biotransformation (Nitroreductase) | Bacterial Biotransformation (Regulatory protein) | Bacterial Biotransformation (Xylanase) | Bacterial Biotransformation [1] | Bacterial Biotransformation [2] | Bacterial Biotransformation [3] | Bacterial Biotransformation [4]
1 | N#Cc1ccc2c(c1)N(CCCN1CCC(O)CC1)c1ccccc1S2 [PERICIAZINE] | Compound NOT metabolized | Compound NOT metabolized | Compound NOT metabolized | Compound NOT metabolized | Compound NOT metabolized | Compound metabolized | Compound NOT metabolized | Compound NOT metabolized | Compound NOT metabolized
2 | C[C@]12CCC(=O)C=C1[C@@H]1C[C@@H]1[C@H]1[C@@H]3[C@@H]4C[C@@H]4[C@@]4(CCC(=O)O4)[C@@]3(C)CC[C@@H]12 [DROSPIRENONE] | Compound NOT metabolized | Compound NOT metabolized | Compound NOT metabolized | Compound NOT metabolized | Compound NOT metabolized | Compound NOT metabolized | Compound NOT metabolized | Compound NOT metabolized | Compound metabolized
